Results from patent US6015878A, “Antitumor agents isolated from intestinal mucosa, a method for their isolation and their application” (Alexandrov, Christo Alexandrov, priority 1995, dated 2000).
Ends that are not written are not given here.

Assays:
Type in all cases: in vivo
[1] = tested on: intestines; experiment: Incorporation of H^3-thymidine (DNA synthesis) in intestines of treated mice; settings: for Incorporation H^3-thymidine: 7 hours after treatment of mice, in comparison with control animals not treated with IEGs
Method: (§1) Laboratory experiments were carried out to accomplish the third object concerning the effect of preparations on biosynthetic processes which was assessed by the incorporation of H^3 -thymidine (DNA-synthesis) and C^14 -uridine (RNA synthesis) in various regions of the intestines of the mice tested. The preparation's morphogenic effect was assessed by the enterocytic cellularity and DNA concentration in the same regions.
(§2) Each fraction obtained in purifying IEG (see Object 1) was tested on mice. 3 mg of the peptide content of the fraction was administered intraperitoneally simultaneously with the testing reagent (isotope); the animals were then killed and investigated 7 hours afterwards. […] Both IEGs have a suppressive effect on DNA synthesis especially in the lower regions of intestines: IEG1 by 45%, IEG2 --by 48%. […] In this way it switches on the chain of molecular mechanisms by which it acts on the smooth muscle motility.

[2] = tested on: intestines; experiment: Incorporation of C^14-uridine (RNA synthesis) in intestines of treated mice; settings: 7 hours after treatment of mice, in comparison with control animals not treated with IEGs
Method: as §1, §2

[3] = tested on: intestines; experiment: DNA concentration in intestines of treated mice (morphogenic effect); settings: 7 hours after treatment of mice, in comparison with control animals not treated with IEGs
Method: as §1, §2

[4] = tested on: intestines; experiment: Enterocytic cellularity in intestines of treated mice (morphogenic effect); settings: for Cellularity: 7 hours after treatment of mice, in comparison with control animals not treated with IEGs
Method: as §1, §2

[5] = Middle section of the intestines

Arg-Arg-Asp-Asp-His-Arg-NH2 (RRDDHR-NH2) [IEG2, ID; NO]
Incorporation H^3-thymidine ([1]; Duodenum): 77%
Incorporation H^3-thymidine ([1]; Ileum): 55%
Incorporation H^3-thymidine ([1]; Jejunum): 88%
Incorporation H^3-thymidine [1, 5]: 48%
suppressive effect on DNA synthesis ([1]; lower regions of intestines, mice, 3 mg intraperitoneally, 7 hours): 48%
Incorporation C^14-uridine ([2]; Duodenum): 78%
Incorporation C^14-uridine ([2]; Ileum): 74%
Incorporation C^14-uridine ([2]; Jejunum): 78%
Incorporation C^14-uridine [2, 5]: 74%
DNA concentration ([3]; Duodenum): 68%
DNA concentration ([3]; Ileum): 77%
DNA concentration ([3]; Jejunum): 97%
DNA concentration [3, 5]: 62%
Cellularity ([4]; Duodenum): 88%
Cellularity ([4]; Ileum): 85%
Cellularity ([4]; Jejunum): 75%
Cellularity [4, 5]: 83%
Average reduction in enterocyte number ([4]; mice, 3 mg peptide content intraperitoneally, 7 hours): 20%
